Residues, ends and D or L forms follow the SMILES beside them.
Biological target: α1β1γδ nAChR (Homo sapiens, UniProt P02708+P07510+P11230+Q07001)
Assay: cell-based
Type: cell-based

Chain of α1β1γδ nAChR (P02708 21-457 limits assumed): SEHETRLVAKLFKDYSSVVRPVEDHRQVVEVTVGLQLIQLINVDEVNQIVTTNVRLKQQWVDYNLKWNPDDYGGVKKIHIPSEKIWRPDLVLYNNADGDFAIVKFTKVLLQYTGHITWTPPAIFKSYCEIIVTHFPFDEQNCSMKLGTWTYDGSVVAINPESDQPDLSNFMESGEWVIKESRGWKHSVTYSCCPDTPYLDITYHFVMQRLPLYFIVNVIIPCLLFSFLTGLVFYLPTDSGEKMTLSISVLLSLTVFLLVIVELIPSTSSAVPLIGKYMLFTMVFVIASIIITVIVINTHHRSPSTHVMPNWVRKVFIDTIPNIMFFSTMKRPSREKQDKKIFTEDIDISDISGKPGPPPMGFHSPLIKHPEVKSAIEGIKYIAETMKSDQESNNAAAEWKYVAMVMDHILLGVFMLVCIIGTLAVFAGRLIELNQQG
Chain of α1β1γδ nAChR (P11230 24-501 partner limits assumed): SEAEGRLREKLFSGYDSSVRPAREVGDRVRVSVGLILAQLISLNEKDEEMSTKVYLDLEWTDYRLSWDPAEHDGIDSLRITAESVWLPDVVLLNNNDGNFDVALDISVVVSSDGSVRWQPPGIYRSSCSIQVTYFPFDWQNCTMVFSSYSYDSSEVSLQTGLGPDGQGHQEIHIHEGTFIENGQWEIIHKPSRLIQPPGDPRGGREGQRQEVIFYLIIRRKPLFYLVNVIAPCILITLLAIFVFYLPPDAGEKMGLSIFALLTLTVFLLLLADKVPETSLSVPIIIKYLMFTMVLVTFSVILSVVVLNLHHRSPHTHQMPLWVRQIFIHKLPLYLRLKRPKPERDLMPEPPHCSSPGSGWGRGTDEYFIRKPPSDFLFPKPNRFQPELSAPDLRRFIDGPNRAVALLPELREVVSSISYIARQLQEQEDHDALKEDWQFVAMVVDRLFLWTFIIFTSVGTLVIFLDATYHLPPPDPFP
Chain of α1β1γδ nAChR (P07510 23-517 limits assumed): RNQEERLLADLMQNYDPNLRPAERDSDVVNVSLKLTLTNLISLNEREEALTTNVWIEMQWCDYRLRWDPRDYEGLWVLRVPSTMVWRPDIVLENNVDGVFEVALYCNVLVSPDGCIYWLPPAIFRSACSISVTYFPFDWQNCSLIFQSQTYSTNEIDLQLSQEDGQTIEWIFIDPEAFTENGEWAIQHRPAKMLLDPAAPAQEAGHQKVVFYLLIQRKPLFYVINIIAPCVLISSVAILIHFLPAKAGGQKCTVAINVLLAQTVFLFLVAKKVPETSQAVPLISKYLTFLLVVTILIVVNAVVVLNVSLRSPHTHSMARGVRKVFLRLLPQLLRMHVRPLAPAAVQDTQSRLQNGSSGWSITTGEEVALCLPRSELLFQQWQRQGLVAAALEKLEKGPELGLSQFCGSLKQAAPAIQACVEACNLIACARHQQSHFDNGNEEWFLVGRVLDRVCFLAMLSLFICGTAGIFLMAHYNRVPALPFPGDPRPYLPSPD
Chain of α1β1γδ nAChR (Q07001 22-517 limits assumed): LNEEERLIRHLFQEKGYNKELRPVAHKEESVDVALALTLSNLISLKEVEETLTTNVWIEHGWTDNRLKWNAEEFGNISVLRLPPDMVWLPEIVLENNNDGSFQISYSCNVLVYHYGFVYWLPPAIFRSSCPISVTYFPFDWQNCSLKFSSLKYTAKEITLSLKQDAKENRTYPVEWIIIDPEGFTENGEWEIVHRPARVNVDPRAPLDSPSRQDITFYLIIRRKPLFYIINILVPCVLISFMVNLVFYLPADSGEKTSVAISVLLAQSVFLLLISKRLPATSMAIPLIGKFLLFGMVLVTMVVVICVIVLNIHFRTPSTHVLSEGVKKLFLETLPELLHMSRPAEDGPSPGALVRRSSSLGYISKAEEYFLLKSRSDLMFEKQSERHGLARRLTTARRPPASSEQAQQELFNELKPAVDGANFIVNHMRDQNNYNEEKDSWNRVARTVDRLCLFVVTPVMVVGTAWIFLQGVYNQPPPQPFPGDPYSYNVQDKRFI

CSCC[C@@H]1NC(=O)[C@@H]2CSSC[C@H](NC(=O)[C@H](CCSC)NC(=O)[C@@H](N)CC(=O)O)C(=O)N[C@@H](CSSC[C@@H](C(N)=O)NC(=O)[C@H](CC(N)=O)NC(=O)[C@H](Cc3ccccc3)NC(=O)[C@H](Cc3c[nH]cn3)NC(=O)[C@H](CC(N)=O)NC1=O)C(=O)N[C@@H](Cc1c[nH]cn1)C(=O)N1CCC[C@H]1C(=O)N[C@@H](C)C(=O)N2 [MilIA] (HELM PEPTIDE1{D.M.C.C.H.P.A.C.M.N.H.F.N.C.[am]}$PEPTIDE1,PEPTIDE1,3:R3-8:R3|PEPTIDE1,PEPTIDE1,4:R3-14:R3$$$V2.0)
inhibition of the ACh-evoked current amplitude, α1β1γδ: 20%
IC50 (SEM): 13.1 µM

From paper PMC6780063 (Marine Drugs, 2019)
